*1 amine or outer side, *2 acyl side, *3 side chain or, on linkers, in order; H or OH if unused. Where a SMILES comes first, the peptide text is derived from it. Bridges are numbered along the chain shown (N, C = ends). [ ]: non-standard residue; d: D form. Adda = CO[C@@H](Cc1ccccc1)[C@@H](C)/C=C(C)/C=C/[C@H](N[*:1])[C@H](C)C(=O)[*:2]; dAsp(3S-Me) = C[C@H](C(=O)[*:3])[C@@H](N[*:1])C(=O)[*:2]; d(γGlu) = O=C(O)[C@@H](CCC(=O)[*:2])N[*:1]; NMeDha = C=C(NC)C(=O)O
What was measured:
[1] = tested on: EpiIntestinal™ 3D human reconstructed intestinal epithelium; assay type: in vitro ADME
EpiIntestinal™ tissues [2] = assay type: cell-based, human
BCRP = experiment: in vitro; details: human, not told
EpiIntestinal™ tissues [3] = assay type: in vitro ADME, human
P-gp = molecular target: T1, P-gp (Homo sapiens, UniProt P08183); experiment: Transport with/without P-gp inhibitor verapamil in EpiIntestinal™; assay type: in vitro ADME
T1 construct: EpiIntestinal™ tissues express all the influx and efflux transporters that are considered relevant; host or cells: EpiIntestinal™ 3D reconstructed human small-intestinal epithelium (normal human primary cells, single donor)
T1 sequence (P08183 whole entry): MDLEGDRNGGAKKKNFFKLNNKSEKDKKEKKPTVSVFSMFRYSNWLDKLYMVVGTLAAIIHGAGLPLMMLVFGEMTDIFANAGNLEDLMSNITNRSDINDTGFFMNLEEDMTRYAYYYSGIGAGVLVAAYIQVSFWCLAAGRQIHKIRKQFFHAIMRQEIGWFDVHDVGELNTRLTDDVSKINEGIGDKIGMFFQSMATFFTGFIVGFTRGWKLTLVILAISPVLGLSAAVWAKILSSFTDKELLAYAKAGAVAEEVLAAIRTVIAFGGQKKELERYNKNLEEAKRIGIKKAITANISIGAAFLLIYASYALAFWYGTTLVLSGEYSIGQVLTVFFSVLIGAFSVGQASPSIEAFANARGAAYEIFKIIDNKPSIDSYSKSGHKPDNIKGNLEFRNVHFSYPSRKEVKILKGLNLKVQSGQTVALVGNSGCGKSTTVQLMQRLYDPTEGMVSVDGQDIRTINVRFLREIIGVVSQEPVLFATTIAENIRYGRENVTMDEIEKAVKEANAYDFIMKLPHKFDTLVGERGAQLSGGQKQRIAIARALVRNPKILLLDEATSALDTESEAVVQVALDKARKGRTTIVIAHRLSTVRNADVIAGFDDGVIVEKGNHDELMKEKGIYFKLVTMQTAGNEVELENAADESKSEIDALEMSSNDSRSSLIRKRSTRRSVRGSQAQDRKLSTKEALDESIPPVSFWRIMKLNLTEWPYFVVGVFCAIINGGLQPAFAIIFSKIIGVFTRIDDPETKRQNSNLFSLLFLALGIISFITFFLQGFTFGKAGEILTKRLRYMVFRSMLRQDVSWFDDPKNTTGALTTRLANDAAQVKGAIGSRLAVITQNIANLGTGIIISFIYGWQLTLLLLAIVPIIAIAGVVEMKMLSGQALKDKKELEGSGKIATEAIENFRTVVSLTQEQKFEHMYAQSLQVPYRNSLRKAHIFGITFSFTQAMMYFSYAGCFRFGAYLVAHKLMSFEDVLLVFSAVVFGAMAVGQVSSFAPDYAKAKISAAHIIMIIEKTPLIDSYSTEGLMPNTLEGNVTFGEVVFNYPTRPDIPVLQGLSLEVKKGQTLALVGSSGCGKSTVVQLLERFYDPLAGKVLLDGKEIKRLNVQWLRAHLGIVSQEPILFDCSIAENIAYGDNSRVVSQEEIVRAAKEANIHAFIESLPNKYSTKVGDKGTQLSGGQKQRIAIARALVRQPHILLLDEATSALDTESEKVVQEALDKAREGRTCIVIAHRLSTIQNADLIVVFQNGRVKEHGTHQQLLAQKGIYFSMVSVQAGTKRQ

MRP2 [4] = molecular target: T2, MRP2 (Homo sapiens, UniProt Q92887); assay type: in vitro ADME
T2 construct: EpiIntestinal™ tissues express all the influx and efflux transporters that are considered relevant; host or cells: EpiIntestinal™ 3D reconstructed human small-intestinal epithelium (normal human primary cells, single donor)
T2 sequence (Q92887 whole entry): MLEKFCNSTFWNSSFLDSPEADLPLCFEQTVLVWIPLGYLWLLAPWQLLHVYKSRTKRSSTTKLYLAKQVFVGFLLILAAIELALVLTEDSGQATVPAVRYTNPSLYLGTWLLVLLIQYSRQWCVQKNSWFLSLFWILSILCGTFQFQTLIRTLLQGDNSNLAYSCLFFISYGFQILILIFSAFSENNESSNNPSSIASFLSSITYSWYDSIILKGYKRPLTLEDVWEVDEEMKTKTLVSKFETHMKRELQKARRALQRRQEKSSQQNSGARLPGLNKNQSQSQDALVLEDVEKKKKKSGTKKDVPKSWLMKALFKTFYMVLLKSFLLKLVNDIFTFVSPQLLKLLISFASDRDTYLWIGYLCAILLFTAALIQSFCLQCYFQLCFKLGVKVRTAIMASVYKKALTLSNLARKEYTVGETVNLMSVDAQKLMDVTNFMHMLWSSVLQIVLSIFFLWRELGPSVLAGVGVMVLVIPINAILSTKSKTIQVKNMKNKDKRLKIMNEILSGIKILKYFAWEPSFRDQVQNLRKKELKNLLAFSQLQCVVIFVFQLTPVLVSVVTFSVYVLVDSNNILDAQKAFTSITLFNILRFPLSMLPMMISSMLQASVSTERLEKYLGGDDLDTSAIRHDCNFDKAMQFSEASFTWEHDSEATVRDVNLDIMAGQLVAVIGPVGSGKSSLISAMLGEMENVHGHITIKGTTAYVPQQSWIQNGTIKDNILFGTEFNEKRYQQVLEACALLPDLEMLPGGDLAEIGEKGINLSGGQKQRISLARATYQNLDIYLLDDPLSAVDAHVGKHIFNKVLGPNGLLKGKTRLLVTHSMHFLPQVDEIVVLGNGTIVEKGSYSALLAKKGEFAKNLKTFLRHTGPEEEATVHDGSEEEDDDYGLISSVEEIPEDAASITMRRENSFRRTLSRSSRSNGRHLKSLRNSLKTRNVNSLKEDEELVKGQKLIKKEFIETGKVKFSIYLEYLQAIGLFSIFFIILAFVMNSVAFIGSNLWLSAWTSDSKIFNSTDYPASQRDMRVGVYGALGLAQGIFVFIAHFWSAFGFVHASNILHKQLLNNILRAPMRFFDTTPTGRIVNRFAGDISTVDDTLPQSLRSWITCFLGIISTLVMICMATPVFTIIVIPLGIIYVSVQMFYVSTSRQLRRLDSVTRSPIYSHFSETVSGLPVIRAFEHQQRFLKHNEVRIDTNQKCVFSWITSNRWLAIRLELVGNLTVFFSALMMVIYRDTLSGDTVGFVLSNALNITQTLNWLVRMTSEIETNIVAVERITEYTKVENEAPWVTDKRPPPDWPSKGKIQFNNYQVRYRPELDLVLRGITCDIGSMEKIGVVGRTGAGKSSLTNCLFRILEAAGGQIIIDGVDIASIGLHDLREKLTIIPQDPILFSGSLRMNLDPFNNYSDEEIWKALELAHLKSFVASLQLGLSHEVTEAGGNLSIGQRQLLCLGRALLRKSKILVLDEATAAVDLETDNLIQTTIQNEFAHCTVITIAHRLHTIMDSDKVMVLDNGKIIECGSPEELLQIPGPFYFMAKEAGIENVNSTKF

OATP 2B1 = OATP 2B1 (Homo sapiens, UniProt O94956); assay type: in vitro ADME
Sequence of OATP 2B1 (O94956 whole entry): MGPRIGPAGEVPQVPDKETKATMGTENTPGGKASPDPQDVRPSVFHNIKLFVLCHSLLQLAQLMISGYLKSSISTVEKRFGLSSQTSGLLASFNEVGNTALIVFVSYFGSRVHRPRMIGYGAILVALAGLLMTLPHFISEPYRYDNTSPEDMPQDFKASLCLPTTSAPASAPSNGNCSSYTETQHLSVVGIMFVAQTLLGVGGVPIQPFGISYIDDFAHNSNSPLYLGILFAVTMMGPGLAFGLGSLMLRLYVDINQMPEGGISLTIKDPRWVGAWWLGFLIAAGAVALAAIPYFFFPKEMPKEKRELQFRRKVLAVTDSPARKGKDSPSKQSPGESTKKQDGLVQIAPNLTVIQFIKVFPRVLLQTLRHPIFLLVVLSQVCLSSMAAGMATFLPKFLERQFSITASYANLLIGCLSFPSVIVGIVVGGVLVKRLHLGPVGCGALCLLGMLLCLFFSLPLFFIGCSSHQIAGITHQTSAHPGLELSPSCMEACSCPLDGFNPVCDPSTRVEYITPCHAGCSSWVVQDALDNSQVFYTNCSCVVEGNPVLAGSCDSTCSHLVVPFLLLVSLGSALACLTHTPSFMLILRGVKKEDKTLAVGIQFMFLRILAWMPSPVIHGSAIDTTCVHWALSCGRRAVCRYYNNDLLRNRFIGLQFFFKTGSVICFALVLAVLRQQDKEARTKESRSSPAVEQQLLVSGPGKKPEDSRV

Caco-2 cell monolayers = details: cited from earlier work
MRP2 [5] = molecular target: T2, MRP2; details: cited from earlier work

## Microcystin-YR [MC-YR]
[1]
  absorption (parent compound detected in the BL compartment), % of the administered dose: around 5%
  amount recovered in the BL compartment at 4 h, percentage of the applied dose: 4.3%
  dependence of Papp on the donor concentration: independent on the donor concentrations
EpiIntestinal™ tissues [2]
  toxicity, measured as barrier integrity with LY: no toxicity

## C[C@]12CC[C@H]3[C@@H](CCC4=CC(=O)CC[C@@]43C)[C@@H]1CC[C@@H]2O [testosterone, Testosterone]
BCRP
  efflux ratio: 1.95

## Microcystin-LW [MC-LW]
[1]
  amount recovered in the cellular pellet, % of the administered dose: less than 1%
  dependence of Papp on the donor concentration: dose dependent increase in permeability
EpiIntestinal™ tissues [2]
  toxicity, measured as barrier integrity with LY: no toxicity
EpiIntestinal™ tissues [3]
  Efflux ratio (ER), Papp BL-AP / Papp AP-BL: 2.65
P-gp
  effect of co-administration of verapamil (P-gp inhibitor) on MC transport: not affected
MRP2 [4]
  effect of cyclosporin on MC transport: not reaching the statistical significance
OATP 2B1
  effect of pravastatin (OATP 2B1 inhibitor) on MC uptake: slightly decreased

## C=C1C(=O)N[C@H](C)C(=O)N[C@@H](CC(C)C)C(=O)N[C@@H](C(=O)O)[C@H](C)C(=O)N[C@@H](CCCNC(=N)N)C(=O)N[C@@H](/C=C/C(C)=C/[C@H](C)[C@H](Cc2ccccc2)OC)[C@H](C)C(=O)N[C@@H](C(=O)O)CCC(=O)N1C [MC-LR, Microcystin-LR] (R[Adda][d(γGlu)][NMeDha][dA]L[dAsp(3S-Me)]-OH; lactam N-7)
[1]
  absorption (parent compound detected in the BL compartment), % of the administered dose: around 5%
  amount recovered in the BL compartment at 4 h, percentage of the applied dose: 4.6%
  dependence of Papp on the donor concentration: independent on the donor concentrations
EpiIntestinal™ tissues [2]
  toxicity, measured as barrier integrity with LY: no toxicity
EpiIntestinal™ tissues [3]
  Efflux ratio (ER), Papp BL-AP / Papp AP-BL: 3.65
P-gp
  effect of co-administration of verapamil (P-gp inhibitor) on MC transport: not affected
MRP2 [4]
  effect of cyclosporin on MC transport: significantly decreased the efflux
Caco-2 cell monolayers
  toxin reaching the basolateral compartment: 0.3–1.35%

## Microcystin-RR [MC-RR]
[1]
  absorption (parent compound detected in the BL compartment), % of the administered dose: around 5%
  amount recovered in the BL compartment at 4 h, percentage of the applied dose: 3.6%
  dependence of Papp on the donor concentration: independent on the donor concentrations
  permeability coefficient Papp (AP-BL), time course: 5.73
  time at which toxin was detectable in the receptor fluid: 30 min
EpiIntestinal™ tissues [2]
  toxicity, measured as barrier integrity with LY: no toxicity

## Microcystin-LF [MC-LF]
[1]
  amount recovered in the cellular pellet, % of the administered dose: less than 1%
  dependence of Papp on the donor concentration: dose dependent increase in permeability
EpiIntestinal™ tissues [2]
  toxicity, measured as barrier integrity with LY: no toxicity
MRP2 [5]
  transport (efflux) by MRP2: transported more rapidly than MC-LR and–RR

Source: paper PMC9388863, “Congeners-Specific Intestinal Absorption Of Microcystins In An In Vitro 3D Human Intestinal Epithelium: The Role Of Influx/Efflux Transporters” (Frontiers in Toxicology, 2022)
